Reference: paper PMC11784026, “Phase 1 study of the safety, tolerability, and pharmacokinetics of a synthetic macrocyclic peptide antibiotic (BRII-693) in healthy adult participants” (Antimicrobial Agents and Chemotherapy, 2024)
Where two headings read alike, the source gives them in different places. Where a SMILES comes first, the peptide text is derived from it. Bridges are numbered along the chain shown (N, C = ends). [ ]: non-standard residue; d: D form. The star is where a group is joined. X1 = O=C(c1ccc(Cl)cc1Cl)*; Dab = NCC[C@H](N)C(=O)O; Abu = CC[C@H](N)C(=O)O; Dap = NC[C@H](N)C(=O)O

Test: Plasma pharmacokinetics after multiple ascending doses (MAD), phase 1
Format: in vivo, human (healthy adult participants)
Settings: for Vd: read-out: VZ
Protocol: Participants were discharged on day 11.
Plasma and urine PK parameters were summarized for each cohort using descriptive statistics. Analyses using linear models were performed to assess dose proportionality (both single-dose cohorts 1–7 and multiple-dose cohorts 8–10). Dose-linearity of Cmax and AUC across the dose range was assessed by fitting the power model with ln-transformed parameter as response variables and ln-transformed dose (continuous variable) as a fixed effect. For each PK parameter and study phase (SAD or MAD) separately, a pooled estimate (across all dose cohorts) of slope, corresponding 95% confidence interval (CI), and between-subject coefficient of variation (CV) were calculated. Dose proportionality was to be concluded if the 95% CI for the slope spans 1. […] Least square means (LSMs) and difference in LSMs with 90% CI were calculated; these values were then back exponentiated to give the geometric LSM, geometric mean ratio, and 90% CI.

[1] = human, plasma, iv, 100 mg, First q6h dose (day 3), 7-day MAD 100 mg q6h × 7, n = 3, arithmetic mean ± SD
[2] = human, plasma, iv, 100 mg, Last q6h dose (day 9), 7-day MAD 100 mg q6h × 7, n = 6, arithmetic mean ± SD
[3] = human, plasma, iv, 150 mg, First q6h dose (day 1), 14-day MAD 150 mg q6h × 14, Chinese, n = 10, arithmetic mean ± SD
[4] = human, plasma, iv, 150 mg, First q6h dose (day 1), 14-day MAD 150 mg q6h × 14, non-Chinese, n = 10, arithmetic mean ± SD
[5] = human, plasma, iv, 150 mg, First q6h dose (day 3), 7-day MAD 150 mg q6h × 7, n = 5, arithmetic mean ± SD
[6] = human, plasma, iv, 150 mg, Last q6h dose (day 9), 7-day MAD 150 mg q6h × 7, n = 5, arithmetic mean ± SD
[7] = human, plasma, iv, 150 mg, Last q6h dose (day 14), 14-day MAD 150 mg q6h × 14, Chinese, n = 6, arithmetic mean ± SD
[8] = human, plasma, iv, 150 mg, Last q6h dose (day 14), 14-day MAD 150 mg q6h × 14, non-Chinese, n = 10, arithmetic mean ± SD
[9] = human, plasma, iv, 200 mg, First q6h dose (day 3), 7-day MAD 200 mg q6h × 7, n = 4, arithmetic mean ± SD
[10] = human, plasma, iv, 200 mg, Last q6h dose (day 9), 7-day MAD 200 mg q6h × 7, n = 5, arithmetic mean ± SD

CC[C@@H]1NC(=O)[C@@H](CC(C)C)NC(=O)[C@H](CCN)NC(=O)[C@@H](NC(=O)[C@H](CN)NC(=O)[C@@H](NC(=O)[C@H](CCN)NC(=O)c2ccc(Cl)cc2Cl)[C@@H](C)O)CCNC(=O)[C@H]([C@@H](C)O)NC(=O)[C@H](CCN)NC(=O)[C@H](CCN)NC1=O [BRII-693] (X1-[Dab]T[Dap][Dab][Dab][dL][Abu][Dab][Dab]T; lactam 4-C; N-terminus assumed)
Tmax (First q6h dose (day 1), 14-day MAD 150 mg q6h × 14, Chinese, n = 10, median (range)): 1.08 (1.02, 1.12) h
Tmax (First q6h dose (day 1), 14-day MAD 150 mg q6h × 14, non-Chinese, n = 10, median (range)): 1.07 (1.03, 1.25) h
Tmax (First q6h dose (day 3), 7-day MAD 100 mg q6h × 7, n = 6, median (range)): 1.13 (1.08, 1.25) h
t1/2 (First q6h dose (day 3), 7-day MAD 150 mg q6h × 7, n = 5, arithmetic mean ± SD): 2.40 ± 0.21 h
Tmax (First q6h dose (day 3), 7-day MAD 150 mg q6h × 7, n = 5, median (range)): 1.07 (1.02, 1.15) h
ARAUC (accumulation ratio based on AUC) (Last q6h dose (day 9), 7-day MAD 100 mg q6h × 7, n = 6, arithmetic mean ± SD): 1.59 ± 0.14
ARAUC (accumulation ratio based on AUC) (Last q6h dose (day 9), 7-day MAD 150 mg q6h × 7, n = 5, arithmetic mean ± SD): 1.48 ± 0.10
ARAUC (accumulation ratio based on AUC) (Last q6h dose (day 9), 7-day MAD 200 mg q6h × 7, n = 5, arithmetic mean ± SD): 1.69 ± 0.34
ARAUC (accumulation ratio based on AUC) (Last q6h dose (day 14), 14-day MAD 150 mg q6h × 14, Chinese, n = 6, arithmetic mean ± SD): 1.58 ± 0.19
Tmax (Last q6h dose (day 14), 14-day MAD 150 mg q6h × 14, Chinese, n = 6, median (range)): 1.07 (1.05, 1.22) h
ARAUC (accumulation ratio based on AUC) (Last q6h dose (day 14), 14-day MAD 150 mg q6h × 14, non-Chinese, n = 10, arithmetic mean ± SD): 1.58 ± 0.17
Tmax (Last q6h dose (day 14), 14-day MAD 150 mg q6h × 14, non-Chinese, n = 10, median (range)): 1.07 (1.02, 1.10) h
Geometric mean ratio for AUC0-6h, Chinese vs non-Chinese (after the first dose on day 1, 150 mg q6h × 14, 90% CI: 0.966, 1.20): 1.08
Geometric mean ratio for Cmax, Chinese vs non-Chinese (after the first dose on day 1, 150 mg q6h × 14, 90% CI: 0.970, 1.24): 1.10
Geometric mean ratio for AUC0-6h, Chinese vs non-Chinese (after the last dose on Day 14, 150 mg q6h × 14, 90% CI 0.926, 1.25): 1.08
Geometric mean ratio for Cmax, Chinese vs non-Chinese (after the last dose on Day 14, 150 mg q6h × 14, 90% CI 0.935, 1.20): 1.06
Cmax (human, plasma, iv, 100 mg, First q6h dose (day 3), 7-day MAD 100 mg q6h × 7, 1-h IV infusion, plasma, n = 6, arithmetic mean ± SD): 5960 ± 710 ng/mL
clearance [1]: 80.5 mL/min
Vd [1]: 17.1 ± 2.72 L
half-life (human, plasma, iv, 100 mg, First q6h dose (day 3), 7-day MAD 100 mg q6h × 7, n = 6, arithmetic mean ± SD): 2.88 ± 0.5 h
AUC(0-t) (human, plasma, iv, 100 mg, First q6h dose (day 3), 7-day MAD 100 mg q6h × 7, n = 6, arithmetic mean ± SD, read-out: AUC0-6h): 18000 ± 2380 ng·h/mL
clearance [2]: 59.5 mL/min
half-life [2]: 7.58 ± 1.72 h
AUC(0-t) (human, plasma, iv, 100 mg, Last q6h dose (day 9), 7-day MAD 100 mg q6h × 7, n = 6, arithmetic mean ± SD, read-out: AUC0–6h): 28600 ± 4480 ng·h/mL
Vd [2]: 38.4 ± 8.18 L
Tmax (human, plasma, iv, 100 mg, Last q6h dose (day 9), 7-day MAD 100 mg q6h × 7, n = 6, median (range), read-out: Tmax): 1.18 h
Cmax (human, plasma, iv, 100 mg, Last q6h dose (day 9), 7-day MAD 100 mg q6h × 7, plasma, n = 6, arithmetic mean ± SD): 8120 ± 1000 ng/mL
clearance [3]: 77.7 mL/min
half-life [3]: 2.15 ± 0.28 h
AUC(0-t) (human, plasma, iv, 150 mg, First q6h dose (day 1), 14-day MAD 150 mg q6h × 14, Chinese, n = 10, arithmetic mean ± SD, read-out: AUC0-6h): 27300 ± 4140 ng·h/mL
Vd [3]: 14.4 ± 2.93 L
Cmax (human, plasma, iv, 150 mg, First q6h dose (day 1), 14-day MAD 150 mg q6h × 14, Chinese, plasma, n = 10, arithmetic mean ± SD): 10200 ± 1890 ng/mL
clearance [4]: 80 mL/min
half-life [4]: 2.42 ± 0.29 h
AUC(0-t) (human, plasma, iv, 150 mg, First q6h dose (day 1), 14-day MAD 150 mg q6h × 14, non-Chinese, n = 10, arithmetic mean ± SD, read-out: AUC0-6h): 25200 ± 2860 ng·h/mL
Vd [4]: 16.7 ± 2.57 L
Cmax (human, plasma, iv, 150 mg, First q6h dose (day 1), 14-day MAD 150 mg q6h × 14, non-Chinese, plasma, n = 10, arithmetic mean ± SD): 9200 ± 1050 ng/mL
Cmax (human, plasma, iv, 150 mg, First q6h dose (day 3), 7-day MAD 150 mg q6h × 7, 1-h IV infusion, plasma, n = 5, arithmetic mean ± SD): 8690 ± 1240 ng/mL
clearance [5]: 82.3 mL/min
AUC(0-t) (human, plasma, iv, 150 mg, First q6h dose (day 3), 7-day MAD 150 mg q6h × 7, n = 5, arithmetic mean ± SD, read-out: AUC0-6h): 24800 ± 3450 ng·h/mL
Vd [5]: 17.2 ± 3.33 L
clearance [6]: 69.2 mL/min
half-life [6]: 6.76 ± 0.35 h
AUC(0-t) (human, plasma, iv, 150 mg, Last q6h dose (day 9), 7-day MAD 150 mg q6h × 7, n = 5, arithmetic mean ± SD, read-out: AUC0–6h): 36600 ± 4360 ng·h/mL
Vd [6]: 40.9 ± 9.47 L
Tmax (human, plasma, iv, 150 mg, Last q6h dose (day 9), 7-day MAD 150 mg q6h × 7, n = 5, median (range), read-out: Tmax): 1.07 h
Cmax (human, plasma, iv, 150 mg, Last q6h dose (day 9), 7-day MAD 150 mg q6h × 7, plasma, n = 5, arithmetic mean ± SD): 11700 ± 1540 ng/mL
clearance [7]: 59.5 mL/min
half-life [7]: 12.4 ± 6.92 h
AUC(0-t) (human, plasma, iv, 150 mg, Last q6h dose (day 14), 14-day MAD 150 mg q6h × 14, Chinese, n = 6, arithmetic mean ± SD, read-out: AUC0–6h): 42500 ± 4960 ng·h/mL
Vd [7]: 61.9 ± 30.2 L
Cmax (human, plasma, iv, 150 mg, Last q6h dose (day 14), 14-day MAD 150 mg q6h × 14, Chinese, plasma, n = 6, arithmetic mean ± SD): 13300 ± 1500 ng/mL
clearance [8]: 64.7 mL/min
half-life [8]: 15.6 ± 11.7 h
AUC(0-t) (human, plasma, iv, 150 mg, Last q6h dose (day 14), 14-day MAD 150 mg q6h × 14, non-Chinese, n = 10, arithmetic mean ± SD, read-out: AUC0–6h): 39900 ± 7150 ng·h/mL
Vd [8]: 81.4 ± 55.6 L
Cmax (human, plasma, iv, 150 mg, Last q6h dose (day 14), 14-day MAD 150 mg q6h × 14, non-Chinese, plasma, n = 10, arithmetic mean ± SD): 12700 ± 1780 ng/mL
Cmax (human, plasma, iv, 200 mg, First q6h dose (day 3), 7-day MAD 200 mg q6h × 7, 1-h IV infusion, plasma, n = 5, arithmetic mean ± SD): 13500 ± 4430 ng/mL
clearance [9]: 76.3 mL/min
Vd [9]: 15.7 ± 5.81 L
half-life (human, plasma, iv, 200 mg, First q6h dose (day 3), 7-day MAD 200 mg q6h × 7, n = 5, arithmetic mean ± SD): 2.49 ± 0.51 h
AUC(0-t) (human, plasma, iv, 200 mg, First q6h dose (day 3), 7-day MAD 200 mg q6h × 7, n = 5, arithmetic mean ± SD, read-out: AUC0-6h): 36800 ± 10100 ng·h/mL
Tmax (human, plasma, iv, 200 mg, First q6h dose (day 3), 7-day MAD 200 mg q6h × 7, n = 5, median (range), read-out: Tmax): 1.08 h
clearance [10]: 57.8 mL/min
half-life [10]: 7.58 ± 0.93 h
AUC(0-t) (human, plasma, iv, 200 mg, Last q6h dose (day 9), 7-day MAD 200 mg q6h × 7, n = 5, arithmetic mean ± SD, read-out: AUC0–6h): 61300 ± 15700 ng·h/mL
Vd [10]: 37.3 ± 8.4 L
Tmax (human, plasma, iv, 200 mg, Last q6h dose (day 9), 7-day MAD 200 mg q6h × 7, n = 5, median (range), read-out: Tmax): 1.1 h
Cmax (human, plasma, iv, 200 mg, Last q6h dose (day 9), 7-day MAD 200 mg q6h × 7, plasma, n = 5, arithmetic mean ± SD): 18300 ± 4150 ng/mL
